Experimental data: US20050004084A1, “Aspirin-containing trasdermal pharmaceutical composition for the treatment of calcification” (priority 2001, published 2005)

Key:
[1] = Examination of the metabolism of acetylsalicylic acid: ASA and SA in plasma by HPLC after gel applied onto skin; type: in vivo, New Zealand giant white rabbits; details: for concentration at 0 h / concentration at 0.25 h / concentration at 0.5 h / concentration at 0.75 h / concentration at 0.75 hour / concentration at 1 h / concentration at 1.5 h / concentration at 2 h / concentration at 3 h / concentration at 4 h: pH 6.5, Salicylic acid and acetysalicylic acid contents of blood samples
Method: The tests were performed on 6 week old male New Zealand giant white rabbits. […] The hair was shaved off from the backs of the rabbits, and 0.6 g of a gel with the following composition was applied onto the skin:
Blood samples were taken periodically as indicated in Table 1 from the jugular veins of the animals, the samples were centrifuged to separate the plasma, and the acetylsalicylic acid (ASA) and salicylic acid (SA) contents of the samples were measured by HPLC. The centrifuged plasma was stored at −22° C. until the time of analysis in order to avoid any ex vivo metabolism due to the presence of esterases in the plasma.
The above test was repeated on the same animals with the difference that 0.01 g of sodium carbonate was also added to the gel and the gel was buffered to pH 6.5.

[2] = Urine analyses on rabbits kept on specific calcium-rich diet; type: in vivo
Method: From the data of Table 2 it appears that the amount of acetylsalicylic acid present in the blood of the animals stabilized after a short induction period. […] This test was performed on healthy animals, where no dissolution of calcification and no formation of calcium acetylsalicylate due to the dissolution took place.

[3] = male, New Zealand giant white, rabbit, in vivo
[4] = male, New Zealand giant white, rabbit, in vivo, 0 h, pH 6.5
[5] = male, New Zealand giant white, rabbit, in vivo, 0.75 h, pH 6.5
[6] = male, New Zealand giant white, rabbit, in vivo, 0.75 hour, pH 6.5
[7] = male, New Zealand giant white, rabbit, in vivo, Salicylic acid and acetysalicylic acid contents of blood samples

Row | Salicylic acid and acetysalicylic acid contents of blood samples [1, 4] | Salicylic acid and acetysalicylic acid contents of blood samples [1, 5] | Salicylic acid and acetysalicylic acid contents of blood samples [1, 6] | concentration at 0.75 hours [1, 7] [ng/mL] | concentration at 0 h [1, 3] [ng/mL] | concentration at 0.25 h [1, 3] [ng/mL] | concentration at 0.5 h [1, 3] [ng/mL] | concentration at 0.75 h [1, 3] [ng/mL] | concentration at 0.75 hour [1, 3] [ng/mL] | concentration at 1 h [1, 3] [ng/mL] | concentration at 1.5 h [1, 3] [ng/mL] | concentration at 2 h [1, 3] [ng/mL] | concentration at 3 h [1, 3] [ng/mL] | concentration at 4 h [1, 3] [ng/mL] | Compound | other results
1 | 0 μg/ml of plasma | 9.68 μg/ml of plasma | 8.84 μg/ml of plasma | 115 | 0 | 570 | 5240 | 9440 | 7900 | 7700 | 7120 | 6980 | 5650 | 4550 | CC(=O)Oc1ccccc1C(=O)O [ASA, acetylsalicylic acid] | time within which acetylsalicylic acid metabolizes in the body to salicylic acid and acetic acid [1, 3]: ≤ 15 min; Salicylic acid and acetysalicylic acid contents of blood samples ([1]; male, New Zealand giant white, rabbit, in vivo, 0 hours): 0 μg/ml of plasma; Salicylic acid and acetysalicylic acid contents of blood samples ([1]; male, New Zealand giant white, rabbit, in vivo, 1.75 hours): 0.136 μg/ml of plasma; acetylsalicylic acid remained un-metabolized ([1]; male, New Zealand giant white, rabbit, in vivo, 4 h, pH 6.5): 25%; concentration at 0 hours [1, 7]: 0 ng/mL; concentration at 1 hours [1, 7]: 98 ng/mL; concentration at 1.75 hours [1, 7]: 76 ng/mL; concentration at 2 hours [1, 7]: 163 ng/mL; Salicylic acid and acetysalicylic acid contents of blood samples ([1]; rabbit, in vivo): BLD; metabolism of acetylsalicylic acid (observation) ([1]; rabbit, in vivo, pH 6.5): extreme slow down in the metabolism; start of metabolism of acetylsalicylic acid ([1]; rabbit, in vivo, pH 6.5): third-fourth hour
2 |  |  |  |  |  |  |  |  |  |  |  |  |  |  | calcium acetylsalicylate | excretion / further metabolism [2]: can no longer be metabolized but is excreted from the organism in unchanged form
3 | 0 μg/ml of plasma | 2.54 μg/ml of plasma | 1.97 μg/ml of plasma | 40800 | 0 | 900 | 980 | 2810 | 2100 | 3020 | 2690 | 3110 | 7980 | 12200 | O=C(O)c1ccccc1O [SA, salicylic acid] | Salicylic acid and acetysalicylic acid contents of blood samples ([1]; Rabbit 1, 0 hours, 0.6 g gel without carbonate on skin): BLD; Salicylic acid and acetysalicylic acid contents of blood samples ([1]; Rabbit 2, 0 hours, 0.6 g gel without carbonate on skin): BLD; Salicylic acid and acetysalicylic acid contents of blood samples ([1]; Rabbit 3, 0 hours, 0.6 g gel without carbonate on skin): BLD; Salicylic acid and acetysalicylic acid contents of blood samples ([1]; Rabbit 4, 0 hours, 0.6 g gel without carbonate on skin): BLD; salicylic acid content of the blood samples relative to the acetylsalicylic acid content ([1]; gel without carbonate, Table 1): at least one hundredfold
